We go through three molecules from ChEMBL document CHEMBL4229409, “Rational design of novel irreversible inhibitors for human arginase” (Bioorg Med Chem, 2018).

Active and inactive are the calls of the source. No cut-off for these calls is given here.

Assay [1] concerns the target T1, Arginase-2, mitochondrial (Homo sapiens, UniProt P78540).
T1 sequence (P78540 whole entry): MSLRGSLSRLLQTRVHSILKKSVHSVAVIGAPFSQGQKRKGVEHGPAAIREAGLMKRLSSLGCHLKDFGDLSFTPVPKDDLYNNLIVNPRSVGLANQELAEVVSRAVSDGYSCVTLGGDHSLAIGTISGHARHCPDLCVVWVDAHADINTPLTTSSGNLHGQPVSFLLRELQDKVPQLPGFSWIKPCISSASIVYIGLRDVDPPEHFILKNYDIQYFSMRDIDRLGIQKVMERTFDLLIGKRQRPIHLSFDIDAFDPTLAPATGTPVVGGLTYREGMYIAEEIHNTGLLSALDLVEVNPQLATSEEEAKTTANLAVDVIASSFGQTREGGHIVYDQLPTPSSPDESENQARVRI
Put plainly: Irreversible inhibition of human arginase 2 using thioarginine as substrate measured up to 360 mins by UV micro plate method.

The target in assay [2] is T2, Arginase-2, mitochondrial (Homo sapiens) (UniProt P78540).
T2 sequence (whole entry): T1 sequence (P78540 whole entry)
Put plainly: Irreversible inhibition of human arginase 2 assessed as inactivation rate constant using thioarginine as substrate measured up to 360 mins by UV micro plate method.

The target of the next assay is T3, Arginase-1 (Homo sapiens, UniProt P05089).
T3 sequence (P05089 whole entry): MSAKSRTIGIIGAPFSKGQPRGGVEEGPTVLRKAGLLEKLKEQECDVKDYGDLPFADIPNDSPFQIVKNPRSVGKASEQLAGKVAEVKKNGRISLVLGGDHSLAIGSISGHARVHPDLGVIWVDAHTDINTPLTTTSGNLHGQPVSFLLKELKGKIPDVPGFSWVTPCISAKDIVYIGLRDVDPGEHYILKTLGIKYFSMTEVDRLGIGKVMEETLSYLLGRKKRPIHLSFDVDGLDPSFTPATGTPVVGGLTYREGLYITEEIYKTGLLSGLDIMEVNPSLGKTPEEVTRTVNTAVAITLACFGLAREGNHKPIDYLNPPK
Put plainly: Irreversible inhibition of human arginase 1 using thioarginine as substrate measured up to 360 mins by UV micro plate method.

The target of assay [3] is T4, Arginase-1 (Homo sapiens) (UniProt P05089).
T4 sequence (whole entry): T3 sequence (P05089 whole entry)
Put plainly: Irreversible inhibition of human arginase 1 assessed as inactivation rate constant using thioarginine as substrate measured up to 360 mins by UV micro plate method.

Assay [4] deals with T4, Arginase-1 (Homo sapiens). Put plainly: Binding affinity to human arginase 1 at Thr135 residues preincubated with compound at 500 uM followed by chymotrypsin addition measured after 16 hrs by tandem mass spectrometric method.
A short description of assay [5]: Reversible inhibition of human arginase using thioarginine as substrate measured up to 360 mins by UV micro plate method.

In the case of `N=C(N)Nc1ccc(C(F)C(=O)O)cc1` (stereo not given), the Ki in assay [1] was 322 µM; at Arginase-1, 275 to 307 µM. For the same molecule, the figures for the Kinact in assay [2] and in assay [3] were 0.048 min⁻¹ and 0.029 to 0.031 min⁻¹, respectively. Besides, the outcome in assay [4] was Active.

In assay [5], `N[C@@H](CSCCB(O)O)C(=O)O` displayed a Ki of 20 µM.

With `CC(=O)OC(C(=O)O)c1ccc(NC(=N)N)cc1` (stereo not given), the Ki in assay [1] came to 437 µM; on Arginase-1, 382 µM. Also, the Kinact in assay [2] came out at 0.033 min⁻¹; in assay [3], 0.032 min⁻¹.
